Experimental data published in US8586638B2, “Parakeratosis inhibitor and skin preparation for external use” (priority 2003, dated 2013).
Several values for one entry are separate records, joined by “and”; a condition that tells them apart may be missing. Equal values may be shown once. Where a SMILES comes first, the peptide text is derived from it.

Legend:
[1] = tested on: skin surface stratum corneum of human cheek; assay: Parakeratosis inhibition effect on human skin by N-ethylglycine: number of nuclear cells of skin surface stratum corneum; type: in vivo; conditions: 3 weight % N-ethylglycine side against control side (15 weight % ethanol); area 12 mm by 34 mm; FIG. 2
Description: (§1) In the pore-shrinking effect test on human skin as described in the embodiment 5, the application of N-ethylglycine was further studied about the amelioration of parakeratosis by measuring the number of nuclear cell of skin surface stratum corneum, obtained by means of a tape. Replica was used to actually measure the pore size within the area of 3.34 mm by 3.34 mm to evaluate the pore-shrinking effect.
(§2) More specifically, the skin surface stratum corneum was sampled by means of carton tape (Nichiban, Co. Ltd.) only after the application of sample, Hoechst 33342 solution dissolved in PBS to 0.1 mg/ml was then added, and after the sample was placed in a dark place for 20 minutes, the number of nuclear cells within the area of 12 mm by 34 mm by using a fluorescent microscope. For the replicas made by using silflo (Flexico, Co. Ltd.) was measured before and after the application to capture three-dimensional surface form within the same area (3.34 mm by 3.34 mm) with a confocal microscope (HD100D, Lasertech) to measure and compare the size of pores (surface area value).

[2] = tested on: skin roughness caused by oleic acid on the back of hairless mice; assay: Inhibitory effect on skin roughness by the application of oleic acid (TEWL value); type: in vivo, hairless mice (HR-1); design: ΔTEWL: unit not given here; conditions: for decrease of delta-TEWL value as compared to the control solution (conclusion from Table 6): hairless mice, oleic acid, seventh embodiment; for ΔTEWL: sample 3 weight %, after 10 weight % oleic acid, 3 days, four mice per group, larger = severer roughness, control 12.0
Method: To study the inhibitory effect on the skin roughness by the application of oleic acid by the glycine derivatives and the salts thereof as well as the aminosulfuric acid derivatives and the salts thereof in accordance with the invention 2, the […] (TEWL value) before and after the application was measured to compare the difference therebetween with the value of control (control solution) in order to determine the effect. The preparation of samples and the application procedure were in accordance with the embodiment 4. The TEWL value was measured by means of TEWA meter TM210 (Courage+Khazaka Inc.).
100 microliters of 10 weight % oleic acid (solvent: ethanol) was applied to the back of hairless mice (HR-1, four in each group). Thereafter, 100 microliters of sample solutions (glycine derivatives and the salts thereof as well as the aminosulfuric acid derivatives and the salts thereof) in accordance with the invention 2 were applied at each time. This procedure was repeated for 3 days. The day after the application, TEWL value of the back of mice was measured and the values were averaged. The larger delta-TEWL value indicates severer aggravation of skin roughness.

[3] = tested on: pores on the cheek of healthy male subjects; assay: Effect of shrinking human pores: replica evaluation of cheek pores; type: in vivo; conditions: for Replica Evaluation (mean of n = 5), difference of pore size score before/after application: twice a day for a month, cheek; for effect of pore-shrinking (conclusion from Table 5): fifth embodiment
Method: An experiment of application of sample twice a day for a month on the cheek of healthy male subjects, was conducted with each group consisting of 5 individuals. 3 weight % solution of the glycine derivatives in accordance with the invention 1 (including 15 weight % of ethanol) was prepared. pH was regulated to the range between 7.0 and 7.5, by using hydrochloric acid and/or sodium hydroxide. Control was 15 weight % ethanol solution. Said 3 weight % solution was applied to one side and said control solution was applied to the other side.
Replicas were prepared prior to and after the application to observe the change of form of pores in the same spot under a three-dimensional laser scanning microscope. The size of pores was evaluated visually 13 steps from 1 to 13 (larger number indicates larger pore size), and the difference between the resulted evaluations before/after the application experiment was then calculated to study the effectiveness of each specimen.
An experiment of application of sample twice a day for a month on the cheek of healthy male subjects, was conducted with each group consisting of 5 individuals. 3 weight % solution of the glycine derivatives and the salts thereof as well as the aminosulfuric acid derivatives and the salts thereof in accordance with the invention 2 (including 15 weight % of ethanol), 2 weight % solution of ACES (including 15 weight % of ethanol), 3 weight % solution of CAPS (including 15 weight % of ethanol), and 3 weight % solution of CAPSO (including 15 weight % of ethanol) were prepared. pH was regulated to the range between 7.0 and 7.5, by using hydrochloric acid and/or sodium hydroxide. 15 weight % ethanol solution was used as control. Said sample solutions was applied to one side, and said control solution was applied to the other side.

[4] = tested on: parakeratosis and skin roughness caused by oleic acid on the back of hairless mice; assay: Parakeratosis inhibition effect test: oleic acid applied to the back of hairless mice, visual skin roughness and parakeratosis level; type: in vivo, hairless mice (HR-1); design: key to Evaluation Visual (mean of 4 mice), skin roughness: 0.0 = no roughness, 2.0 = control application; 0.25 steps; conditions: for Evaluation Parakeratosis (mean of 4 mice): range 1.0 to 3.0, higher = severer, control 2.0; for Evaluation Visual (mean of 4 mice), skin roughness: score 0.0 no roughness, 2.0 control; for effect of inhibiting parakeratosis (conclusion from Table 4): fourth embodiment
Method: A 3 weight % water solution (including 30 weight % ethanol) was prepared as the evaluation specimen of the glycine derivatives in accordance with the invention 1. The pH was regulated to the range between 7.0 to 7.5, by using hydrochloric acid and sodium hydroxide. When the solubility was low, the solution was adjusted accordingly.
100 microliters of 10 weight % oleic acid (solvent: ethanol) was applied to the back of hairless mice (HR-1, Hoshino laboratory animals). Thereafter, 100 microliters of sample solution was applied (glycine derivatives in accordance with said invention 1) at each time. This procedure was repeated for 3 days. The day after the application, the skin condition of the backs was observed by using a CCD camera to evaluate the skin roughness (stratified ablation of the skin surface stratum corneum and red spots). The skin condition was evaluated visually, with scoring the skin condition of control application to 2.0 and the skin condition of no roughness to 0.0, in a 0.25 point step in response to the skin condition. At the same time, the skin surface stratum corneum of the back of hairless mice was peeled off by using a tape for staining the nucleus with haematoxylin to observe the degrees of parakeratosis (parakeratosis level) and evaluate in 0.25 step in the range from 1.0 to 3.0. The higher evaluation points indicates the larger number of parakeratotic corneocytes count, i.e., severer parakeratosis.
The samples to be evaluated of the glycine derivatives and the salts thereof as well as the aminosulfuric acid derivatives and the salts thereof in accordance with the invention 2 were prepared mainly 3 weight % solution (including 30 weight % ethanol, excluding Hydantoic acid and ACES which include 20 weight % ethanol). pH was regulated by using hydrochloric acid or sodium hydroxide to be 7.0 to 7.5. When the solubility was low, then the solution was prepared accordingly.
100 microliters of 10 weight % oleic acid (solvent: ethanol) was applied to the back of Hairless mice (HR-1, Hoshino laboratory animals) Thereafter, 100 microliters of sample solution (glycine derivatives in accordance with the invention 2) was applied thereon at each time. This procedure was repeated for 3 days. The day after the application, the skin condition of the backs was observed by using a CCD camera to evaluate the skin roughness (stratified ablation of the skin surface stratum corneum and red spots). The skin condition was evaluated visually, with scoring the skin condition of control application to 2.0 and the skin condition of no roughness to 0.0, in a 0.25 point step in response to the skin condition. At the same time, the skin surface stratum corneum of the back of hairless mice was peeled off by using a tape for staining the nucleus with haematoxylin to observe the degrees of parakeratosis and evaluate in 0.25 step in the range from 1.0 to 3.0. The higher evaluation points indicates the larger number of parakeratotic corneocytes count, i.e., severer parakeratosis.

[5] = tested on: pores on the cheek of healthy male subjects; assay: Pore-shrinking effect on human skin by N-ethylglycine: pore surface area by replica analysis; type: in vivo; conditions: 3 weight % N-ethylglycine side; control 92%; area 3.34 mm by 3.34 mm; FIG. 3
Description: as §1, §2

[6] = tested on: pores (conical portion) on the cheek of healthy adult males; assay: Effect of shrinking human pores by glycylglycine: conical portion surface area from cheek replica; type: in vivo
Method: Since we obtained a good result from glycylglycine in the embodiment 2, we conducted an application experiment of glycylglycine three times a day (0.1 milliliter each) on the cheek of 21 healthy adult males (age of 20s to 50s, average 40.4 years old) for a period of one month. 1.6% (w/w) glycylglycine solution (pH regulated to 7.0) including 15% (w/w) ethanol, and 15% (w/w) ethanol solution (control) was prepared, for applying the same to each one side cheek.
By obtaining a cheek replica (Silflo) before and after the continuous application, the surface area of conical portion was measured by a three-dimensional analysis system (Okuri et al., Japan Society of Dermatology Annual Meeting Program/Abstract, 2004, 104, pp. 601) by means of wide view confocal microscope HD100D (lasertech).
For the surface area recognized as pore portion within the replica measuring area of 3.34 mm by 3.34 mm, the conical portion surface area (mm2) and the ratio thereof before and after the application is shown in Table 3. From Table 3, The ratio among the panel that the surface area of glycylglycine applied side was decreased more than 10% when compared to the control application side (glycylglycine side was shrunk), the panel that the variation was within 10% and no noticeable change observed (no change), and the panel that the control application side was decreased more than 10% (other side was shrunk) was 13:5:3.
When averaging the surface area ratio before and after the application, the side of control solvent solution was 102%, while the side of glycylglycine was reduced to 89%. By evaluating this surface area ratio with t-analysis, we obtained p=0.019, indicating significant shrinkage of pore area in the glycylglycine applied side (see FIG. 1).

[7] = tested on: pores (conical portion) on the cheek of healthy adult males; assay: as above; type: in vivo; conditions: glycylglycine applied side compared with ethanol applied side
[8] = Table 5, 3.0 weight % solution (15 weight % ethanol), control 0.3
[9] = Table 4, sample 3 weight % in aqueous 30 weight % ethanol (hydantoic acid: 20 weight % ethanol)
[10] = sample 3 weight % in aqueous 30 weight % ethanol, after 10 weight % oleic acid, 3 days

Compound	number of nuclear cells of skin surface stratum corneum [1]	decrease of delta-TEWL value as compared to the control solution (conclusion from Table 6) [2]	ΔTEWL [2]	Replica Evaluation (mean of n = 5), difference of pore size score before/after application [3, 8]	effect of pore-shrinking (conclusion from Table 5) ([3]; human cheek)	Evaluation Parakeratosis (mean of 4 mice) [4, 9]	Evaluation Visual (mean of 4 mice), skin roughness [4, 9]	effect of inhibiting parakeratosis (conclusion from Table 4) ([4]; hairless mice, oleic acid)	surface area of pores, average as compared to pre-application status [5] [%]	Replica Evaluation (mean of n = 5), difference of pore size score before/after application ([3]; 3 weight % solution (15 weight % ethanol), 13 steps, larger = larger pore, control 0.2)	pore-shrinking effect (conclusion from Table 2) ([3]; human cheek, second embodiment)	average surface area ratio before and after the application ([6]; glycylglycine side, control solvent side 102%, p=0.019) [%]	conical portion surface area after application ([6]; individual panels #1-21, 1.6% (w/w) glycylglycine, 15% ethanol, three times a day, one month, area 3.34 mm by 3.34 mm)	conical portion surface area ratio after/before ([6]; individual panels #1-21, 1.6% (w/w) glycylglycine, three times a day, one month)	conical portion surface area ratio after/before, mean ([6]; mean of 21 panels (S.D. 0.2597), 1.6% (w/w) glycylglycine, control mean 1.017)	effect of inhibiting parakeratosis (conclusion from Table 1) ([4]; hairless mice, oleic acid, first embodiment)	Evaluation Parakeratosis (mean of 4 mice) [4, 10]	Evaluation Visual (mean of 4 mice), skin roughness [4, 10]	photographic evaluation of conspicuous pores [7]
CCNCC(=O)O [N-ethylglycine]	fewer number of nuclear cells	significant decrease of delta-TEWL value	9.0	−1.4	demonstrated the effect of pore-shrinking	1.2	1.3	have the effect of inhibiting parakeratosis	73	–	–	–	–	–	–	–	–	–	–
O=C(O)CNc1ccccc1 [N-phenylglycine]	–	significant decrease of delta-TEWL value	7.9	−1.0	demonstrated the effect of pore-shrinking	1.2	1.3	have the effect of inhibiting parakeratosis	–	–	–	–	–	–	–	–	–	–	–
NCC(=O)NCC(=O)O [glycylglycine] (H-Gly-Gly-OH)	–	–	–	–	–	–	–	–	–	−1.0	pore-shrinking effect was observed	89	1.2057 mm^2 and 1.3727 mm^2 and 1.5166 mm^2 and 1.4427 mm^2 and 1.2368 mm^2 and 0.6078 mm^2 and 0.3675 mm^2 and 0.4880 mm^2 and 1.1250 mm^2 and 0.5977 mm^2 and 1.3739 mm^2 and 0.2691 mm^2 and 1.2348 mm^2 and 1.2053 mm^2 and 1.0498 mm^2 and 0.3669 mm^2 and 0.6778 mm^2 and 1.0541 mm^2 and 0.5801 mm^2 and 0.6728 mm^2 and 1.3879 mm^2	0.8948 and 0.9818 and 1.0512 and 1.0627 and 1.0535 and 0.7494 and 0.5279 and 0.7405 and 0.7878 and 0.6357 and 0.8594 and 0.4111 and 1.3932 and 0.8940 and 1.2831 and 0.5594 and 0.7676 and 0.8700 and 1.2931 and 0.7612 and 1.0131	0.8853	have the effect of inhibiting parakeratosis	1.2	1.2	ameliorated
NC(=O)NCC(=O)O [hydantoic acid]	–	significant decrease of delta-TEWL value	8.0	−0.8	demonstrated the effect of pore-shrinking	1.3	1.4	have the effect of inhibiting parakeratosis	–	–	–	–	–	–	–	–	–	–	–
